Measurements published in ChEMBL document CHEMBL1201862, “PubChem BioAssay data set” (2004).
The source made the active and inactive calls.

How the values were obtained:
Protein Tat = target: T1, Protein Tat (Human immunodeficiency virus type 1 group M subtype B (isolate HXB2)(HIV-1), UniProt P04608); type: functional;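 also: tat binding to TAR RNA read out by fluorescence polarization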
T1 sequence (P04608 whole entry): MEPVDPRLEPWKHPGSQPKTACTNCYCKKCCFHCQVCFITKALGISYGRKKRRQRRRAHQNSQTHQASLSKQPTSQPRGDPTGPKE

[1] = target: Heat shock protein HSP 90-alpha (Homo sapiens, UniProt P07900); type: functional, organism-based
[2] = target: T2, Corticotropin-releasing factor receptor 2/Corticotropin-releasing factor-binding protein (Homo sapiens, UniProt P24387+Q13324); test: activators of CRF receptor 2 with binding protein – uHTS hits, confirmation (AID 602473); type: functional; conditions: read-out: EC50_Mean
T2 sequence (Q13324 whole entry): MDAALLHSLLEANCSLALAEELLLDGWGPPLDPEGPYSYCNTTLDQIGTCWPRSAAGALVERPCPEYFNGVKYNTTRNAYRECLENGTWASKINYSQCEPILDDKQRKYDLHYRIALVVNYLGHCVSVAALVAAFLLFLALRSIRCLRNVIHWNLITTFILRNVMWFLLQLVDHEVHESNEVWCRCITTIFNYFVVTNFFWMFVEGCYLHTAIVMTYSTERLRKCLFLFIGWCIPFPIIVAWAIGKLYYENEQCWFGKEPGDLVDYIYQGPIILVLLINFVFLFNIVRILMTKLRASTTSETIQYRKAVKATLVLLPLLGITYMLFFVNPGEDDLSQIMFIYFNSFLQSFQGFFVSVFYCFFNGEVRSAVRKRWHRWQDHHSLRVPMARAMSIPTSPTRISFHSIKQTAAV
T2 sequence (P24387 whole entry): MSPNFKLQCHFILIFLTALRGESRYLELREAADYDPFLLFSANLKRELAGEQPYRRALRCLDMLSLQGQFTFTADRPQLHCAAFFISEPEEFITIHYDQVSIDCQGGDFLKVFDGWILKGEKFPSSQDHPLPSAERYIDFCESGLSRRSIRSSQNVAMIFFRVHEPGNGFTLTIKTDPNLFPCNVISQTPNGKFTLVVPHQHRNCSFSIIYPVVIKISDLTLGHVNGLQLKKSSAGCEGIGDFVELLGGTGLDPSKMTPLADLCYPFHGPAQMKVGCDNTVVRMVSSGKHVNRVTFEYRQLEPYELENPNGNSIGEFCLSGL

Vero = test: cells; type: functional; conditions: Chlorocebus sabaeus
Paired box protein Pax-8 = Paired box protein Pax-8 (Homo sapiens, UniProt Q06710); test: inhibitors of PAX8-driven TPO luciferase reporter, dose response, RMG-I cells, cherry-pick (AID 687027); type: functional, cell-based;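 also: luciferase reporter driven by Pax8 target thyroperoxidase promoter measured by SteadyGlo luminescence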
[3] = Shn3 3'UTR reporter inhibitors, dose response, cell-based, Clone20 osteoblasts, firefly luciferase, cherry-picked (AID 624132); type: functional;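 also: firefly luciferase luminescence from reporter carrying the Shn3 3'UTR in osteoblasts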
[4] = HepG2 cell cytotoxicity, dose response, cytotoxicity control for Shn3 inhibitor project, CellTiter-Glo, cherry-picked (AID 624134); type: functional, cell-based
[5] = control 3'UTR Renilla luciferase suppression, dose response, counter-screen for Shn3 inhibitor project, cell-based, Clone20-Shn3RL, cherry-picked (AID 624133); type: functional
Caspase-6 = target: T3, Caspase-6 (Homo sapiens, UniProt P55212); test: human caspase-6 inhibitors, dose response, biochemical, VEID-R110 fluorescence, cherry-pick (AID 720632)
T3 sequence (P55212 whole entry): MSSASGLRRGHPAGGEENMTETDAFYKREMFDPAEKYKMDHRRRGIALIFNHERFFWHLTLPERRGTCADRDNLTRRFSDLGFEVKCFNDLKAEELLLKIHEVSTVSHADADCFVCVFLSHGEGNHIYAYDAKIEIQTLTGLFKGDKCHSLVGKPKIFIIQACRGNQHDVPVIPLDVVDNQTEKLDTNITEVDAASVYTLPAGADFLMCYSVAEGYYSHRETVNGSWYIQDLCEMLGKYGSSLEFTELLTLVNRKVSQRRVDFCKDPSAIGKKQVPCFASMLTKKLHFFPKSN

H9c2 = test: cells; type: functional, cell-based; conditions: Rattus norvegicus, H9c2, Myocardium;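 also: confirmatory concentration-response retest of ultra-high-throughput screening hits for modulation of myocardial damage; cell death induced by hydrogen peroxide oxidative stress; compound pretreatment for 60 min then peroxide exposure for 2 h; potency is for protecting the cells against peroxide damage rather than for killing them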
[6] = target: Nuclear receptor subfamily 5 group A member 2 (Homo sapiens, UniProt O00482); type: functional, cell-based;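 also: HEK293T cells transfected with LRH-1 and a StAR promoter luciferase reporter; potency for inhibitors that lower LRH-1 driven reporter light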
Steroidogenic factor 1 = Steroidogenic factor 1 (Homo sapiens, UniProt Q13285); test: Counterscreen for inverse agonists of the liver receptor homolog-1 (LRH-1; NR5A2): Luminescence-based cell-based high throughput dose response assay to identify inverse agonists of the Steroidogenic Factor 1 Nuclear Receptor (SF1; NR5A1).; type: functional
[7] = StAR promoter reporter inhibition counter-screen, dose response, counter-screen for LRH-1 inverse agonist project, cell-based, luminescence, luciferase reporter (AID 651969); type: functional
[8] = cytotoxicity toward NIH3T3 fibroblasts, dose response, counter-screen, cell-based, ATP luminescence, mouse fibroblasts (AID 2010); type: functional;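 also: cells exposed to compound for about 90 hours before reading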
[9] = inhibitors of intracellular T. cruzi replication, confirmation, NIH3T3 host cells, beta-gal luminescence (AID 2044); type: functional, cell-based;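 also: intracellular parasites grown in NIH/3T3 mouse fibroblasts as host cells; luminescent beta-galactosidase reporter signal from transgenic T. cruzi replicating inside host cells; inhibitors lower the luminescence signal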
Aminopeptidase N = target: T4, Aminopeptidase N (Plasmodium falciparum FcB1/Columbia, UniProt O96935); test: P. falciparum M1AAP inhibitors, biochemical, fluorogenic H-Leu-NHMec substrate, 1536-well (AID 1445); parameters: species or system Plasmodium falciparum 3D7, 3D7
T4 sequence (O96935 whole entry): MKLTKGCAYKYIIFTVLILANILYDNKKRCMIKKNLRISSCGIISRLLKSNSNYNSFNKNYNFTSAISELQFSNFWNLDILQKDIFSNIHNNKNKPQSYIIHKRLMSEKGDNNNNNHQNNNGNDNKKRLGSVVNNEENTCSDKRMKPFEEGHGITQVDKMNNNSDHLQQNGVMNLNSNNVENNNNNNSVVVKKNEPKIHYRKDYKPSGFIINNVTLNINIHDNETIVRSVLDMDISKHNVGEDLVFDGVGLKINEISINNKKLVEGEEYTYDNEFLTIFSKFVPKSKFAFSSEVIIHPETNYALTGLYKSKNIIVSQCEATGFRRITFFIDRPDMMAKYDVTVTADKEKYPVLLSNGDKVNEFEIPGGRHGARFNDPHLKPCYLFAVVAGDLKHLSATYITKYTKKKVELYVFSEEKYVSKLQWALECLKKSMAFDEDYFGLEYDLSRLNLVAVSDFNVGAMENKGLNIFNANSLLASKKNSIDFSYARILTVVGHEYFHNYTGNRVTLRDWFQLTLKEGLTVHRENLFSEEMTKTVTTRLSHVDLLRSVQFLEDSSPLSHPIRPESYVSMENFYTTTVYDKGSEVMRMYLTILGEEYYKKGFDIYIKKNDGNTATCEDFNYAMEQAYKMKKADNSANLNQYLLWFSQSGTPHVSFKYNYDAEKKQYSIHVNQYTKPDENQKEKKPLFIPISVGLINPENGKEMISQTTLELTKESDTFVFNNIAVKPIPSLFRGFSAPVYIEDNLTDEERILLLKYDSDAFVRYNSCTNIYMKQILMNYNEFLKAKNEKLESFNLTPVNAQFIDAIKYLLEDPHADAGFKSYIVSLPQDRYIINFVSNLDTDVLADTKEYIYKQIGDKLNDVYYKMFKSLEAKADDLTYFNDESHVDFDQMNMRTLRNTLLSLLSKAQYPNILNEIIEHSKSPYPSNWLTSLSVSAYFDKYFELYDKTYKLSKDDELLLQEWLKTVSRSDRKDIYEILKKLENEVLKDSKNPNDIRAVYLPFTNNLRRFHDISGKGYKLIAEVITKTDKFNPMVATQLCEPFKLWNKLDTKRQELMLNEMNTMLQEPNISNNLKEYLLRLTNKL

Sequence of Nuclear receptor subfamily 5 group A member 2 (O00482 whole entry): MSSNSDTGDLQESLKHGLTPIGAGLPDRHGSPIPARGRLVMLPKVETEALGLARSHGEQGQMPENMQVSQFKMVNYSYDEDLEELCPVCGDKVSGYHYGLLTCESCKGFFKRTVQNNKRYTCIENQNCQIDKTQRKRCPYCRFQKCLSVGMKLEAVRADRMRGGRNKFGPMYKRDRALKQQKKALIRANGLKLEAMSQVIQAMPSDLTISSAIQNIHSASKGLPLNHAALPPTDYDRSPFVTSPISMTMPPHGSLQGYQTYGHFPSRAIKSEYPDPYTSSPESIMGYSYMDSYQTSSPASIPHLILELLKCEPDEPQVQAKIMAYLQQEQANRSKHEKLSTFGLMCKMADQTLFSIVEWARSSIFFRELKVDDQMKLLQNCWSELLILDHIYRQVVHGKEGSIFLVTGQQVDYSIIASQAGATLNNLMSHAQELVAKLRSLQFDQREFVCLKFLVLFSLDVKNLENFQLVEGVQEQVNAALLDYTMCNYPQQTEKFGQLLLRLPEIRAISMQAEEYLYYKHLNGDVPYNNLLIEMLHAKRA
Sequence of Steroidogenic factor 1 (Q13285 whole entry): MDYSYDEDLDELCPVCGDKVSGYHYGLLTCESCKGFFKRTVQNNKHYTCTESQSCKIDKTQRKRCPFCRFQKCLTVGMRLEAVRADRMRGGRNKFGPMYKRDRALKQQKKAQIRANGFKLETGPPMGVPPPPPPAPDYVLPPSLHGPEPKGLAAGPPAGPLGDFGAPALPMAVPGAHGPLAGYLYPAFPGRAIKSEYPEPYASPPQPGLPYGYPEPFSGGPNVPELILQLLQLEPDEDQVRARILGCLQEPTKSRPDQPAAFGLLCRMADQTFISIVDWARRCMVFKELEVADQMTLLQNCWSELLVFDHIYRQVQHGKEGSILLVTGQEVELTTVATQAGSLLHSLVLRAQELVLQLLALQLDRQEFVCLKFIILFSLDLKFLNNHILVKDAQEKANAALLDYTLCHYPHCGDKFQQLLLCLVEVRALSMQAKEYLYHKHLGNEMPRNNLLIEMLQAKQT
Sequence of Paired box protein Pax-8 (Q06710 whole entry): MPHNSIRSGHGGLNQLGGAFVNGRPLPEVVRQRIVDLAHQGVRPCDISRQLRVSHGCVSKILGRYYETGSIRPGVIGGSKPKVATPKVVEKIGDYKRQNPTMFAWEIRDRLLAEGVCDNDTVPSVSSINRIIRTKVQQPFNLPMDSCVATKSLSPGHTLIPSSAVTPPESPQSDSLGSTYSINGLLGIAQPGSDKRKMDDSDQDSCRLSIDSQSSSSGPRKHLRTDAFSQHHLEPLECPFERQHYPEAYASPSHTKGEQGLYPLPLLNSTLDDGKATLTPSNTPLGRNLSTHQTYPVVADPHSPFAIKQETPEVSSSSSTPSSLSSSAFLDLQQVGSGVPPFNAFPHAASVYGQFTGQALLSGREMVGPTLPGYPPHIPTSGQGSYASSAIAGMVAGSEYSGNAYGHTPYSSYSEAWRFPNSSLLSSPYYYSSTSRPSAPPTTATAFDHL

CCOC(=O)c1nn(-c2ccc(Cl)cc2Cl)c(=N)c(C#N)c1C
IC50 (Protein Tat): > 100 µM (active)

COCCOC(=O)/C(=C/c1ccc(OC(=O)c2ccccc2)cc1)C(C)=O
AC50 [1]: 3.02 µM (active)
EC50 [2]: > 53 µM (inactive)

CCN(CC(=O)NC(C)(C)C)C(=O)CCl
CC50 (Vero): 22.2 µM (active)

CCCCCCN1C[C@@H](n2cc(-c3ccc(F)cc3)nn2)[C@H](O)C[C@@H]1c1ccc(Cl)cc1
AC50 (Paired box protein Pax-8): 9.71 µM (active)
AC50 [3]: 12.5 µM (active)
AC50 [4]: 41.6 µM (active)
AC50 [5]: 21.5 µM (active)

CC(NC(=O)CN1c2cccc3cccc(c23)S1(=O)=O)c1ccc(S(N)(=O)=O)cc1 (stereo not drawn)
AC50 (Caspase-6): 22.4 µM (active)

O=C(COC(=O)c1ccc([N+](=O)[O-])o1)NCCc1ccccc1
AC50 (Caspase-6): 42.2 µM (active)

O=C(Nc1nc(-c2ccccn2)cs1)c1ccc(-c2ccccc2F)o1
AC50 [1]: 6.54 µM (active)
IC50 (H9c2): > 79 µM (inactive)

Cc1cccc(N2CCN(S(=O)(=O)c3c(C)noc3/C=C/N(C)C)CC2)c1C
AC50 [1]: 4.74 µM (active)

Cc1cc(C)c2c(O)nc(SCC(=O)Nc3ccc(Br)cc3)nc2n1
IC50 [6]: 28.2 µM (inactive)
IC50 (Steroidogenic factor 1): 33.4 µM (inactive)
IC50 [7]: 35.9 µM (inactive)

Cc1cc(OCC(=O)N2CCC(O)CC2)c2c(C)cc(=O)oc2c1
IC50 [6]: 19 µM (inactive)
IC50 (Steroidogenic factor 1): 11.2 µM (inactive)
IC50 [7]: 35.9 µM (inactive)

CCC(C)(C)n1nnnc1C(c1cccnc1)N1CCC(Cc2ccccc2)CC1 (stereo not drawn)
EC50 [8]: 49 µM (active)
AC50 [1]: 1.09 µM (active)
EC50 [9]: 0.151 µM (active)

C=CCn1c(CNC(=O)c2ccccc2F)nnc1SCC(=O)NC(C)c1ccccc1 (stereo not drawn)
IC50 (Aminopeptidase N): 103 µM (active)
